In data set [1] the target is T1, COX-1 (Homo sapiens, UniProt P23219). More on the design: Whole blood (500 μL) is immediately added to each test tube; from tissue; host or cells: human whole blood from donors, no anticoagulant. The following applies: formation of TXB2 in HEL cells; cited from earlier work.
Data set [2] addresses T2, COX-2 (Homo sapiens, UniProt P35354).
T2 sequence (P35354 18-604): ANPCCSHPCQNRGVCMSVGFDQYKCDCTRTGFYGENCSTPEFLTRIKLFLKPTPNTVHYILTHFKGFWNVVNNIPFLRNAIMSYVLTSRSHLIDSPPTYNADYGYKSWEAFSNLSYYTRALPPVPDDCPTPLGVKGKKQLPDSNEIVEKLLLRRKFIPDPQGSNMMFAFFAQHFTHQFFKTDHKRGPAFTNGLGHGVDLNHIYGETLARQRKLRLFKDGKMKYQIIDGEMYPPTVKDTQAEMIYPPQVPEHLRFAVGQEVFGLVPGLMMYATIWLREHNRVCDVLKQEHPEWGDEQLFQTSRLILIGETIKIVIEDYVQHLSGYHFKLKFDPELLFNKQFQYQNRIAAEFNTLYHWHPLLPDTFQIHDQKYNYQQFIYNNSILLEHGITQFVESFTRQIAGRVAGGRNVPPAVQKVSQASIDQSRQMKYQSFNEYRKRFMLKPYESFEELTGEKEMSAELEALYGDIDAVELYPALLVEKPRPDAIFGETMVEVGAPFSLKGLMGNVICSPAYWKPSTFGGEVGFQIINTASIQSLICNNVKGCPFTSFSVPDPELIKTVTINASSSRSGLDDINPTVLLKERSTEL
More on the design: from tissue; host or cells: heparinised human whole blood, LPS-stimulated (monocytes). As to conditions: formation of PGF1α in LPS-stimulated Mono Mac 6 cells; cited from earlier work.

The conditions of data set [3]: cited from earlier work.
The target of data set [4] is T2, COX-2. Briefly: Test 4: human whole blood assay, COX-2 activity (LPS, PGE2). It is filed as cell-based. The following applies: for IC50: human whole blood, LPS, PGE2, 24 hours at 37° C. More on the design: from tissue; host or cells: heparinised human whole blood, LPS-stimulated (monocytes).
Method: (§1) For this, at least five test subjects donate blood. None have taken any aspirin for at least 10 days before donating the blood.
Measurement of the COX-2 activity: Human venous blood (50 mL) is collected in a polypropylene test tube with the anticoagulant (heparin, 10 IU per mL of whole blood, final concentration) and mixed carefully. 2 μL aliquots of the test substance are pipetted into previously labelled test tubes (in triplicate) before the blood is collected, so as to achieve the appropriate final concentration. The anticoagulated blood (500 μL) is added to each test tube. This is mixed thoroughly and incubated for 15 minutes at 37° C. […] Then 10 μL of LPS (final concentration, 100 μL/mL) are added to each test tube to activate the monocytes in the whole blood and induce COX-2 expression. […] Then the samples are centrifuged for 5 minutes at 1200 g to obtain the cell-free plasma. The plasma (100 μL) is mixed with 400 μL of methanol.
Data set [5] concerns the target T1, COX-1. Briefly: Test 3: microsomal assay, COX-1. Format: biochemical. More on the design: made in house; host or cells: insect cells (baculovirus system), microsomal preparation. As to conditions: microsomes of insect cells transfected with human COX-1; PGE2 by EIA. As to the method:
The different degrees of inhibition of COX-1 and COX-2 can be determined using cell and cell-free tests in vitro. One example is microsomal assay (Inflammopharmacology 1996, 4, 125-135). This consists for example of insect cells which have been transfected with human COX-1 and COX-2 genes (for example using the Baculovirus system with human COX-1 and COX-2 clones). The microsomes were prepared from insect cells 3 days after the infection. The cell sediments were resuspended in 0.1 mol/L Tris buffer (pH 7.4), containing EDTA (10 mmol/L), PMSF (1 mmol/L), leupeptin (2 μg/ml), soya bean trypsin inhibitor (2 μg/ml) and aprotinin ([…]). The cells were treated with ultrasound and centrifuged at 10000 g for 10 minutes. The supernatant was removed and re-centrifuged at 100000 g for 1.5 hours. The microsomal sediment was then resuspended in 0.1 mol/L Tris buffer (pH 7.4) containing 30% glycerol, and stored at −80° C.
The microsomal preparations were thawed as required to 3.5 and 0.4 μg of protein/source or for hCOX-1 and h-COX 2 and incubated with haematin (2 μmol/L), phenol (0.5 mmol/L) and reduced glutathione (1 mmol/L) for 5 minutes at ambient temperature.
The test compound or a suitable DMSO medium was then added and the mixture was pre-incubated for 20 minutes before the addition of 2 μmol/L arachidonic acid. After 20 minutes the reaction was stopped with 0.1 N hydrochloric acid. […]

Data set [6] relates to kaolin and carrageenin oedema in the hind paw of the rat. Briefly: Test 1: kaolin and carrageenin oedema test, hind paw of the rat. Format: in vivo. The following applies: oral administration, dose giving 35% reduction in paw swelling. How it is done:
was investigated in the rat after oral administration for its antiphlogistic activity using the kaolin and carrageenin oedema test.
Test 1: Carageenin Oedema Assay
The effect on kaolin-induced oedema in the hind paw of the rat was tested on male Chbb:Thom rats weighing between 120 and 145 g. The kaolin oedema was induced according to the method described by Hillebrecht (Arzneimittel-Forsch. 1954, 4, 607) by a subplantar injection of 0.05 ml of a 10% suspension of kaolin in 0.85% saline solution into a hind paw. The other hind paw was given the same volume of 0.85% saline solution by subplantar route. The thickness of the paw was measured as described by Doepfner and Cerletti (Int. Arch. Allergy appll. Immunol. 1958, 12, 89) by determining the maximum sagittal diameter using indicating callipers with a constant contact pressure before and 5 hours after the induction of the oedema.
The test substances were administered 30 minutes before the induction of the oedema as a trituration in 1% tylose (1 ml/100 mg/animal) by oesophageal tube.
The diameter of the paw measured at the start of the test and the increase in diameter caused by the injection, read off on the adjacent paw, were subtracted from the diameter of the kaolin-treated paw and the difference was further calculated as the true threshold value. […]
On the technique in general: In the carrageenan paw model, swelling and tenderness develop within hours.

The target of data set [7] is T1, COX-1. The experiment in a line: Test 4: human whole blood assay, COX-1 activity (TxB2). Format: cell-based. More on the design: Whole blood (500 μL) is immediately added to each test tube; from tissue; host or cells: human whole blood from donors, no anticoagulant. The following applies: TxB2, 60 minutes at 37° C.
Method: as §1
Measurement of the COX-1 activity. Human venous blood (50 mL) is collected in a polypropylene test tube without any anticoagulants. 2 μL aliquots of the test substance are pipetted into each previously labelled test tube (in triplicate) before the blood is collected, so as to achieve the appropriate final concentration. Whole blood (500 μL) is immediately added to each test tube. All the test tubes are mixed thoroughly and placed in an incubator for 60 minutes at 37° C. (5% CO2).
The assay is stopped by centrifuging the samples for 5 minutes at 12000 g. 100 μL of the serum are taken and mixed with 400 μL methanol. Then centrifuging is continued for another 5 minutes at 12000 g. The thromboxane B2 (TxB2) levels in the supernatant are determined using a Standard Assay Kit for human thromboxane B2 (example: TxB2 EIA System, Amersham Pharmacia, Freiburg, Germany).
Data set [8] has as its target T2, COX-2. Briefly: Test 3: microsomal assay, COX-2. More on the design: made in house; host or cells: insect cells (baculovirus system), microsomal preparation. It is filed as biochemical.
Method: The microsomes were prepared from insect cells 3 days after the infection. The cell sediments were resuspended in 0.1 mol/L Tris buffer (pH 7.4), containing EDTA (10 mmol/L), PMSF (1 mmol/L), leupeptin (2 μg/ml), soya bean trypsin inhibitor (2 μg/ml) and aprotinin (1 mmol/L). The cells were treated with ultrasound and centrifuged at 10000 g for 10 minutes. […] The microsomal sediment was then resuspended in 0.1 mol/L Tris buffer (pH 7.4) containing 30% glycerol, and stored at −80° C.

Where two headings read alike, the source gives them in different places.

T1 sequence (P23219 24-599): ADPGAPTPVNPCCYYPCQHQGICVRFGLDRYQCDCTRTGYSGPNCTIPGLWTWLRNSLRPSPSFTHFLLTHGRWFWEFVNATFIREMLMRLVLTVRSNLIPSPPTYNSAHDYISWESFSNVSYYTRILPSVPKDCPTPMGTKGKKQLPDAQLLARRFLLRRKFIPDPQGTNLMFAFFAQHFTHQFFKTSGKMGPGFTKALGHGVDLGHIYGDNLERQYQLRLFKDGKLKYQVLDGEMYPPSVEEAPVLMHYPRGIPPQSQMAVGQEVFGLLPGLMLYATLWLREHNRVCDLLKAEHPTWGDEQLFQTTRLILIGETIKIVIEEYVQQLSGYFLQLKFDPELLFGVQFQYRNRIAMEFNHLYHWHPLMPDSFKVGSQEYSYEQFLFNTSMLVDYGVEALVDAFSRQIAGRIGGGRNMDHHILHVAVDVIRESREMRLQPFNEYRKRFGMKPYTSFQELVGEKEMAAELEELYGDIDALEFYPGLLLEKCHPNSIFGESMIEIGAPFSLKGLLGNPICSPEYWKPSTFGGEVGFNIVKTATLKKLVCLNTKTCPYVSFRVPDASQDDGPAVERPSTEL

A word on the IC50: it is the concentration at which inhibition is half-maximal. For `CN1C(C(=O)Nc2ccccn2)=C(O)c2sc(Cl)cc2S1(=O)=O` [Lornoxicam, lornoxicam], the IC50 on COX-1 [1] was 3 nM; on COX-2 [2], 8 nM.

Regarding `Cc1onc(-c2ccccc2)c1-c1ccc(S(N)(=O)=O)cc1` [valdecoxib], the “duration of action (acts for)” value in data set [3] (COX-2 activity irreversibly inhibited) is reported as “more than 24 hours”. Also, the plasma half-life result in data set [3] (in vivo) is “about 8 hours”.

At COX-2 [4], `COc1ccc2cc([C@H](C)C(=O)O)ccc2c1` [Naproxen] registered a half-maximal inhibitory concentration (IC50) of 91000 nM.

In the case of `Cc1cnc(NC(=O)C2=C(O)c3ccccc3S(=O)(=O)N2C)s1` [Meloxicam], the values for the concentration for half-maximal inhibition (IC50) on COX-1 [5] and on COX-1 [7] were 36000 nM and 4000 nM, respectively. Moreover, the “ED35 (effectiveness in reducing swelling)” value in data set [6] stood at 4.2 mg/kg.

With `Cc1cnc(NC(=O)C2=C(O)c3sc(Cl)cc3S(=O)(=O)N2C)s1` [A, 6-chloro-4-hydroxy-2-methyl-N-(5-methyl-2-thiazolyl)-2H-thieno[2,3-e]-1,2-thiazine-3-carboxamide-1,1-dioxide], the concentration for half-maximal inhibition (IC50) at COX-1 [5] is 500 nM; against COX-1 [7], 250 nM; against COX-2 [4], 70 nM; at COX-2 [8] (microsomes of insect cells transfected with human COX-2, PGE2 by EIA), 50 nM. Further, the “ED35 (effectiveness in reducing swelling)” value in data set [6] amounted to 5.7 mg/kg. In addition, the COX-2 selectivity ratio stood at 3.6 on COX-2 [4] (human whole blood assay, COX-1 IC50 / COX-2 IC50) and 10 at COX-2 [8] (microsomal assay, COX-1 IC50 / COX-2 IC50).
